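48-hour exposure; five concentrations; linearly interpolated endpoints. GI50 is the concentration that inhibits growth by half. TGI: concentration producing complete growth inhibition.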
How the values were obtained:
Test in all cases: inhibition of tumour cell growth, NCI panel, 48 h
[1] = test system: A549 NSCLC
[2] = test system: HCT-15 colon
[3] = test system: HOP-62 NSCLC
[4] = test system: KM12 colon
[5] = test system: MOLT-4 leukemia
[6] = test system: NCI-H460 lung
[7] = test system: SF-539 CNS
[8] = test system: SK-OV-3 ovarian
[9] = test system: SW-620 colon
[10] = test system: TK-10 renal

SMILES	TGI [1] [µM]	TGI [2] [µM]	TGI [3] [µM]	TGI [4] [µM]	TGI [5] [µM]	TGI [6] [µM]	TGI [7] [µM]	TGI [8] [µM]	TGI [9] [µM]	TGI [10] [µM]	GI50 [1] [µM]	GI50 [2] [µM]	GI50 [3] [µM]	GI50 [4] [µM]	GI50 [5] [µM]	GI50 [6] [µM]	GI50 [7] [µM]	GI50 [8] [µM]	GI50 [9] [µM]	GI50 [10] [µM]
CCCCN(CCCC)C(=O)C(=O)CC(=O)c1ccc(Br)cc1	> 100	> 100	> 100	> 100	> 100	> 100	> 100	> 100	> 100	> 100	–	–	–	–	–	–	–	–	–	–
COc1ccccc1C(=O)/C=C/c1cc2cccc(OC)c2[nH]c1=O	12.6	1.73	4.9	1.13	5.2	0.524	0.0848	14.9	1.56	11.5	0.069	0.027	0.0668	< 0.0167	0.0408	0.0243	0.0211	0.554	0.0158	1.14
CC1=C(C(=O)Nc2ccccc2)C(c2ccc3c(c2)OCO3)C(C(=O)Nc2ccccc2)=C(C)N1	> 100	> 100	> 100	> 100	82	> 100	76	> 100	12.3	> 100	–	–	–	–	–	–	–	–	–	–
COc1ccc(N(C)c2nc(C)nc3ccccc23)cc1	> 100	> 100	> 100	–	> 100	–	> 100	> 26.1	> 100	> 47.5	< 0.01	< 0.01	< 0.01	< 0.01	< 0.01	< 0.01	< 0.01	< 0.01	< 0.01	–
O=C1c2cc3c(cc2-c2c1c1cc(Cl)c(Cl)cc1c(=O)n2CCCn1ccnc1)OCO3	> 100	> 100	–	37.1	10.9	> 100	0.0206	0.0305	> 100	> 100	< 0.01	0.0257	< 0.01	0.0244	< 0.01	< 0.01	< 0.01	< 0.01	< 0.01	0.085
COc1c(OC(C)=O)ccc(/C=C2\N=C(C)OC2=O)c1[N+](=O)[O-]	> 100	> 100	> 100	> 100	> 100	> 100	> 100	> 100	> 100	> 100	–	–	–	–	–	–	–	–	–	–
O=C(c1cccs1)c1c(C(F)(F)F)n([O-])c2ccc(C(F)(F)F)cc2[n+]1=O	0.31	0.73	0.767	0.774	0.498	0.407	0.36	2.56	0.325	1.31	0.134	0.286	0.298	0.295	0.174	0.205	0.183	1.24	0.162	0.596
Nc1nc(N)[n+]([O-])c(N)c1NCO	> 100	> 100	> 100	> 100	> 100	> 100	> 100	> 100	> 100	> 100	–	–	–	–	–	–	–	–	–	–
